Source: ChEMBL document CHEMBL5291721, “A preclinical secondary pharmacology resource illuminates target-adverse drug reaction associations of marketed drugs” (Nat Commun, 2023)

Key:
[1] = target: T1, Gastrin/cholecystokinin type B receptor (Homo sapiens, UniProt P32239)
T1 sequence (P32239 whole entry): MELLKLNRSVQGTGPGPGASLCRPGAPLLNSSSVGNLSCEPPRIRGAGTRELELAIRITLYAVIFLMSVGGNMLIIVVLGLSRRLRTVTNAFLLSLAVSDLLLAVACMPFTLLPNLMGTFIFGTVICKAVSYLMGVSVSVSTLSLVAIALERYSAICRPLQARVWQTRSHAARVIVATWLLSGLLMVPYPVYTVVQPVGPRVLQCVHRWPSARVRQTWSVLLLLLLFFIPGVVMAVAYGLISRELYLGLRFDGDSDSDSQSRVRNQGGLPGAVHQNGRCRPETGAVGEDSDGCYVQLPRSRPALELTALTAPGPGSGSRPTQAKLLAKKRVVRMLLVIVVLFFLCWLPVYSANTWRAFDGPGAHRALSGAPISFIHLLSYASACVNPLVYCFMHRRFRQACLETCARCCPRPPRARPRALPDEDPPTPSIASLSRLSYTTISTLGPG

[2] = target: 5-hydroxytryptamine receptor 2A (Homo sapiens, UniProt P28223); type: functional, cell-based
5-hydroxytryptamine receptor 2A, sequence (P28223 whole entry): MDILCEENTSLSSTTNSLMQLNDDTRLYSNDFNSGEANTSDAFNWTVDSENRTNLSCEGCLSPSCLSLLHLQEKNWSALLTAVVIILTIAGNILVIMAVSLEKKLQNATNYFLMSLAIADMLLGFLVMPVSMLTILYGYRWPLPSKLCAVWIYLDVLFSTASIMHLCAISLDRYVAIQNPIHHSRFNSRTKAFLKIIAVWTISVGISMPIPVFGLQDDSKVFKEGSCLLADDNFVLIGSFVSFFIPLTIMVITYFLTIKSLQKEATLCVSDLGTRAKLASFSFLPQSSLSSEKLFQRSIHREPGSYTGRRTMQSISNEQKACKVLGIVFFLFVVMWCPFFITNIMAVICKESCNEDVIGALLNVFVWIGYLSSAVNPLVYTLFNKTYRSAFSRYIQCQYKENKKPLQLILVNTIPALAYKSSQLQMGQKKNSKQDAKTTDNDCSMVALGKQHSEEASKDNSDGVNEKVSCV

Adenosine receptor A1 = target: T2, Adenosine receptor A1 (Homo sapiens, UniProt P30542)
T2 sequence (P30542 whole entry): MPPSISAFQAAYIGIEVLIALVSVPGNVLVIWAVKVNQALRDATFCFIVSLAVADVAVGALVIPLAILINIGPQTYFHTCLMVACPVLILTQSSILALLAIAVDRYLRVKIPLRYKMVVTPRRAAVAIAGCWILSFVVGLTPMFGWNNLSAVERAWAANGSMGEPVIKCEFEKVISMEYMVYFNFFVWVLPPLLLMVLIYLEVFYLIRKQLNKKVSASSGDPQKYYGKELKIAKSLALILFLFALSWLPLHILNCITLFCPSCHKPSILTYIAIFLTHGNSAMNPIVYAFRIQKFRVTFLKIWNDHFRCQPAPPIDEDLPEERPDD

[3] = target: Kappa-type opioid receptor (Homo sapiens, UniProt P41145)
Kappa-type opioid receptor, sequence (P41145 whole entry): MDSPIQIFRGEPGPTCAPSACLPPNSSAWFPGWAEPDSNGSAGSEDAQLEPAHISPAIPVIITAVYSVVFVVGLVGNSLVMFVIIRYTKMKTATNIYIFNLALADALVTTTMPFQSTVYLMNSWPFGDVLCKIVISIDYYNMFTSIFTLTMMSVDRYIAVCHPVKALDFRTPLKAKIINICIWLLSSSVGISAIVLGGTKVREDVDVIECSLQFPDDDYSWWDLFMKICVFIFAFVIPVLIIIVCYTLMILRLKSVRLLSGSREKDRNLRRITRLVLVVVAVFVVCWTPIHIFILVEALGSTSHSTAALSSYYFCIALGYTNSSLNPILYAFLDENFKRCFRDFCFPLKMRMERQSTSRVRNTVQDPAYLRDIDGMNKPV

[4] = target: Gamma-aminobutyric acid receptor subunit alpha-1 (Rattus norvegicus, UniProt P62813)
Gamma-aminobutyric acid receptor subunit alpha-1, sequence (P62813 whole entry): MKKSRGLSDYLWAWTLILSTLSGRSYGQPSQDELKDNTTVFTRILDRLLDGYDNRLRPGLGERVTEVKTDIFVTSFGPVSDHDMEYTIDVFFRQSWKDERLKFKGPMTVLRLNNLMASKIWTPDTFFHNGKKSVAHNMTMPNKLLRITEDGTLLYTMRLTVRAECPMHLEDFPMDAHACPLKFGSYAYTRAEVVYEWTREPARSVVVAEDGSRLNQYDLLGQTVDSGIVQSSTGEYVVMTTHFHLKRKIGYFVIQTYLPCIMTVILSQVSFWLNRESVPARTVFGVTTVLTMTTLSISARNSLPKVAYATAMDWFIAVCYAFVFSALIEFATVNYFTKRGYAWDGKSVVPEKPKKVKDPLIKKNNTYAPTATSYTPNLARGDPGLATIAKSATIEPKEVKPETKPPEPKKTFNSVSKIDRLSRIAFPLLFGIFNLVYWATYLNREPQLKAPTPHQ

[5] = target: 5-hydroxytryptamine receptor 2B (Homo sapiens, UniProt P41595); type: functional, cell-based
5-hydroxytryptamine receptor 2B, sequence (P41595 whole entry): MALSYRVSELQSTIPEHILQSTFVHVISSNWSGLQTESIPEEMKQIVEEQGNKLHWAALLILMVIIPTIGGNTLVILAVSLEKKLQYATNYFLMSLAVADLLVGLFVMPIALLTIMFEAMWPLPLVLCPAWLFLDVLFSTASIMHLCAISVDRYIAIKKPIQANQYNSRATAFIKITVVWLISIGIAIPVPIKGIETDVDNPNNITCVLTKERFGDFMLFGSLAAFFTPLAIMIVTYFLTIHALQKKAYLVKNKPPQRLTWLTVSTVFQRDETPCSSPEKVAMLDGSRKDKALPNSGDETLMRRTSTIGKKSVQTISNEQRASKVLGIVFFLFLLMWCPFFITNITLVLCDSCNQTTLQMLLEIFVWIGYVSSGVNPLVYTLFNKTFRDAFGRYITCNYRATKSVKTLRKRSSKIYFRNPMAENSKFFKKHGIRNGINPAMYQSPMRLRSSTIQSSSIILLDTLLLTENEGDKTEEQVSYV

Histamine H3 receptor = Histamine H3 receptor (Homo sapiens, UniProt Q9Y5N1)
Histamine H3 receptor, sequence (Q9Y5N1 whole entry): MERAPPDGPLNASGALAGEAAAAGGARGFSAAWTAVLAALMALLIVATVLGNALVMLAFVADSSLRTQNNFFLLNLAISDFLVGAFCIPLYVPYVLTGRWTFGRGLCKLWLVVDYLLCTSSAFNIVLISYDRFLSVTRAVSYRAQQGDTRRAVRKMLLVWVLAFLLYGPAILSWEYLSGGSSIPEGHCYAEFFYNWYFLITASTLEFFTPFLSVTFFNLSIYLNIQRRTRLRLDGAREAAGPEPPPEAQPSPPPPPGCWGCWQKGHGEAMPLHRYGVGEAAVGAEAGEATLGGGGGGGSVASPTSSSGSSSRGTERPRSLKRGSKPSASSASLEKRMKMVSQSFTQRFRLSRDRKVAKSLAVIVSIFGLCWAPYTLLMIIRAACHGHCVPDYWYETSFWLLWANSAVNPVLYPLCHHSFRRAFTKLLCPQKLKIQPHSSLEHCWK

[6] = target: Delta-type opioid receptor (Homo sapiens, UniProt P41143)
Delta-type opioid receptor, sequence (P41143 whole entry): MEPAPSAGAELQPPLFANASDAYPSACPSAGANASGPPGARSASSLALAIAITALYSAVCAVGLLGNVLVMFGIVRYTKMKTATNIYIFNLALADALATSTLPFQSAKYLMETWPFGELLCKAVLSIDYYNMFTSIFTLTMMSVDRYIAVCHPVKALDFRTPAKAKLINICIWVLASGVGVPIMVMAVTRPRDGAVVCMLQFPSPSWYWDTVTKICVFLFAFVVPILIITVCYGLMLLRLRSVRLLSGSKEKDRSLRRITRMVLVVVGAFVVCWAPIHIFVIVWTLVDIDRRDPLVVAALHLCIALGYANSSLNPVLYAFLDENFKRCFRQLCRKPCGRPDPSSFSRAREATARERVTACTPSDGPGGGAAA

Cannabinoid receptor 1 = Cannabinoid receptor 1 (Homo sapiens, UniProt P21554); type: functional, cell-based
Cannabinoid receptor 1, sequence (P21554 whole entry): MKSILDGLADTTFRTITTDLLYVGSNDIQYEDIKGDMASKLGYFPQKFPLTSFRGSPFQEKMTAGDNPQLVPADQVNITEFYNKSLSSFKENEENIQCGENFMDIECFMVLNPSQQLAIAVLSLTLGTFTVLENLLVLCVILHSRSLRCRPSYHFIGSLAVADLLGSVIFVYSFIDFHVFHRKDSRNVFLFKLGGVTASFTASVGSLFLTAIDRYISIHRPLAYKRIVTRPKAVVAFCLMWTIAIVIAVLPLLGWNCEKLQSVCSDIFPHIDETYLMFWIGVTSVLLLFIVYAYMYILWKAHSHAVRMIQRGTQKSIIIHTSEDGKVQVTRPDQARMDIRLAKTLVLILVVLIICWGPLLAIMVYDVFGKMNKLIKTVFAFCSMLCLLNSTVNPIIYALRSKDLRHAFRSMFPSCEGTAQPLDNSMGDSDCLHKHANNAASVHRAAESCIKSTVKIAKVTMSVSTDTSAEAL

Vasopressin V2 receptor = Vasopressin V2 receptor (Homo sapiens, UniProt P30518)
Vasopressin V2 receptor, sequence (P30518 whole entry): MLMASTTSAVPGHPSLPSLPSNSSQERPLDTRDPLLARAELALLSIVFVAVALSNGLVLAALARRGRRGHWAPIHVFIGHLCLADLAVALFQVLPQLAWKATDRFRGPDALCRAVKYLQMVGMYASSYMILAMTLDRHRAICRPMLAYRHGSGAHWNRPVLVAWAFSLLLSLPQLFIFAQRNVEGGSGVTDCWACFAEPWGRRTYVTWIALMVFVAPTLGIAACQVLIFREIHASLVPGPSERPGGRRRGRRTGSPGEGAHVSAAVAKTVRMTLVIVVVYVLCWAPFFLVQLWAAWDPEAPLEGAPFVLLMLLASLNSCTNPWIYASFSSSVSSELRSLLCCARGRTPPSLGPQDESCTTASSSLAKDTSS

[7] = target: T3, Alpha-2A adrenergic receptor (Homo sapiens, UniProt P08913); type: functional, cell-based
T3 sequence (P08913 whole entry): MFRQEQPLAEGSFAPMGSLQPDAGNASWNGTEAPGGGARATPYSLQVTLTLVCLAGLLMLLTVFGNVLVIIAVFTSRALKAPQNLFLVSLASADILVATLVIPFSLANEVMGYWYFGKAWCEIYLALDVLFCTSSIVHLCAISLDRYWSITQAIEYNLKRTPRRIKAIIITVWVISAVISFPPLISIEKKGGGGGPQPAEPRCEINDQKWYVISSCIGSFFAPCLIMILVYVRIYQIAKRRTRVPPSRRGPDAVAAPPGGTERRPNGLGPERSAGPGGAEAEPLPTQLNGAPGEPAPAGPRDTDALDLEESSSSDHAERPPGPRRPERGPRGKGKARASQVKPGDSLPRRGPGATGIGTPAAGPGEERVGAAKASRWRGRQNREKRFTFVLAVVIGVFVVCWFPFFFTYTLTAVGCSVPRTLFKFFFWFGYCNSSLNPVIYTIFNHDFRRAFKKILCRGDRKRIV

[8] = target: T4, 5-hydroxytryptamine receptor 1A (Homo sapiens, UniProt P08908); type: functional, cell-based
T4 sequence (P08908 whole entry): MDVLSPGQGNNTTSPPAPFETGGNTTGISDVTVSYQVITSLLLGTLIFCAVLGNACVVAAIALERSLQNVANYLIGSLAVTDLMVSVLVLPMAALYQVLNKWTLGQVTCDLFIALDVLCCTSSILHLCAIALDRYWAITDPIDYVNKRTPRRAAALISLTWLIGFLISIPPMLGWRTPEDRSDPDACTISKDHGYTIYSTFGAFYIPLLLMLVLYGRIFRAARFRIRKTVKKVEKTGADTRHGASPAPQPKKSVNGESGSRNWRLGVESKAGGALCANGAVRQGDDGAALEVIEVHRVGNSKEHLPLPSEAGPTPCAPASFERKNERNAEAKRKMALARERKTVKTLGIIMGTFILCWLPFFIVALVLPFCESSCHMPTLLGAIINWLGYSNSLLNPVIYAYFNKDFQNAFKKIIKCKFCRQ

Glucocorticoid receptor = target: T5, Glucocorticoid receptor (Homo sapiens, UniProt P04150)
T5 sequence (P04150 whole entry): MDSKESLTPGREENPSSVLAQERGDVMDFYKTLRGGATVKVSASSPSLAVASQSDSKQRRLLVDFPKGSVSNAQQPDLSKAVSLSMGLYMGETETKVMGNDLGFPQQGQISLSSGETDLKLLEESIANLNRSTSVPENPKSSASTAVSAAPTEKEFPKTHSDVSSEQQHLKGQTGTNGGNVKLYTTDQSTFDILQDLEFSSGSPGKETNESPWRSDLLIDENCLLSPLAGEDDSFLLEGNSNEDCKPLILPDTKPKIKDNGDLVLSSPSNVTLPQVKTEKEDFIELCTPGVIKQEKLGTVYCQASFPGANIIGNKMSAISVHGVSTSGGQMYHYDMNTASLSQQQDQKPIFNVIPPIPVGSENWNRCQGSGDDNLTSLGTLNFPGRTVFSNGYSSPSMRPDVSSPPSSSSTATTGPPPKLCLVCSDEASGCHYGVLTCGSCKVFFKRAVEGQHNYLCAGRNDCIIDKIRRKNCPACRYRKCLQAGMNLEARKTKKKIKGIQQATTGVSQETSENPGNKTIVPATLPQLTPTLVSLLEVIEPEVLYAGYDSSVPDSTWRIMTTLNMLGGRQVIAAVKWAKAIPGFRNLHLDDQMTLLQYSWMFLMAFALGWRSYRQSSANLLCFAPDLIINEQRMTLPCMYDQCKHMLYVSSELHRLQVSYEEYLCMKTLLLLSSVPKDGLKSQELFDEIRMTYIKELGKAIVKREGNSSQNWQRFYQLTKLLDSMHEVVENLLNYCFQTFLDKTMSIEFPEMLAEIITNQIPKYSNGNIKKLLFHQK
Note: assay procedure not described here.

| SMILES | AC50 [1] [µM] | AC50 [2] [µM] | AC50 (Adenosine receptor A1) [µM] | AC50 [3] [µM] | AC50 [4] [µM] | AC50 [5] [µM] | AC50 (Histamine H3 receptor) [µM] | AC50 [6] [µM] | AC50 (Cannabinoid receptor 1) [µM] | AC50 (Vasopressin V2 receptor) [µM] | AC50 [7] [µM] | AC50 [8] [µM] | AC50 (Glucocorticoid receptor) [µM] |
| --- | --- | --- | --- | --- | --- | --- | --- | --- | --- | --- | --- | --- | --- |
| COc1ccccc1N1CCN(CCCNc2cc(=O)n(C)c(=O)n2C)CC1 | > 30 | > 30 | > 30 | > 30 | > 30 | > 30 | > 30 | > 30 | > 30 | > 30 | > 30 | – | – |
| CC(C)C(=O)c1c(C(C)C)nn2ccccc12 [IBUDILAST] | > 30 | > 30 | 20 | > 30 | > 30 | > 30 | > 30 | > 30 | > 30 | > 30 | > 30 | > 30 | – |
| C#C[C@]1(O)CC[C@H]2[C@@H]3CCc4cc(OC5CCCC5)ccc4[C@H]3CC[C@@]21C [QUINESTROL] | – | > 10 | > 10 | > 10 | > 10 | > 10 | – | > 30 | – | > 10 | > 10 | > 10 | – |
| COc1ccc(-c2ccc3cc(C(=O)O)ccc3c2)cc1C12CC3CC(CC(C3)C1)C2 | > 30 | > 30 | > 30 | > 30 | > 30 | > 30 | > 30 | > 30 | > 30 | > 30 | > 30 | > 30 | – |
| Nc1nc(N)nc(-c2cc(Cl)ccc2Cl)n1 [IRSOGLADINE] | > 30 | – | > 30 | – | – | > 30 | > 30 | – | > 30 | > 30 | > 30 | > 30 | > 30 |
| C/C(O)=C(\C#N)C(=O)Nc1ccc(C(F)(F)F)cc1 [TERIFLUNOMIDE] | – | 28 | > 30 | – | – | > 30 | > 30 | > 30 | > 30 | – | > 30 | > 30 | – |
| CCN1CCN(C(=O)N[C@@H](C(=O)N[C@@H]2C(=O)N3C(C(=O)O)=C(CSc4nnnn4C)CS[C@H]23)c2ccc(O)cc2)C(=O)C1=O [CEFOPERAZONE] | > 30 | > 30 | > 30 | > 10 | – | > 30 | > 30 | > 30 | > 30 | > 30 | > 30 | > 30 | – |
| CNS(=O)(=O)Cc1ccc2[nH]cc(CCN(C)C)c2c1 | > 30 | – | > 30 | > 30 | > 30 | 13 | – | > 30 | > 30 | > 30 | > 30 | – | > 30 |
| CC=CC(=O)N(CC)c1ccccc1C | – | – | > 10 | > 10 | > 10 | > 10 | > 10 | > 30 | > 30 | > 10 | > 10 | > 10 | > 10 |
| CC(C)(C)C(=O)Oc1ccc(S(=O)(=O)Nc2ccccc2C(=O)NCC(=O)O)cc1 | > 30 | > 30 | > 30 | > 30 | > 30 | > 30 | > 30 | > 30 | > 30 | > 30 | > 30 | > 30 | – |
| CCCC(C)C1(CC)C(=O)NC(=O)NC1=O (configuration not stated) [PENTOBARBITAL] | – | > 10 | > 10 | > 10 | – | > 10 | – | 19 | – | > 10 | > 10 | > 10 | – |
| CC(C)(C)c1cc(C(C)(C)C)c(NC(=O)c2c[nH]c3ccccc3c2=O)cc1O [IVACAFTOR] | > 30 | – | > 30 | > 10 | > 10 | > 10 | > 10 | > 30 | – | > 30 | > 10 | – | > 30 |
| CC(=O)O[C@H]1CC[C@@]2(C)C(=CC[C@@H]3[C@@H]2CC[C@]2(C)C(c4cccnc4)=CC[C@@H]32)C1 [ABIRATERONE ACETATE] | – | > 30 | > 30 | – | – | – | > 30 | > 30 | > 30 | – | > 30 | > 30 | – |
| CCOC(=O)OC(C)OC1=C(C(=O)Nc2ccccn2)N(C)S(=O)(=O)c2ccccc21 (configuration not stated) [AMPIROXICAM] | > 30 | – | > 30 | > 30 | > 30 | > 30 | > 30 | > 30 | > 30 | > 30 | > 30 | > 30 | > 30 |
| CCOC(=O)[C@H](CCc1ccccc1)N[C@@H](C)C(=O)N1C(=O)N(C)C[C@H]1C(=O)O | > 30 | > 30 | > 30 | – | > 30 | > 30 | > 30 | > 30 | > 30 | > 30 | > 30 | > 30 | – |
| O=C(O)CCCCCCCC(=O)O [AZELAIC ACID] | – | > 10 | > 10 | > 10 | > 10 | > 10 | – | > 30 | – | > 10 | > 10 | > 10 | – |
